# Data from patent US9029409B2, “Isoxazolines as therapeutic agents” (AbbVie Inc., priority 2011, dated 2015).
# Target: T1, recombinant human MMP13 catalytic domain (CD) (Homo sapiens, UniProt P45452)
# T1 construct: catalytic domain (CD) construct encompassing residues 20-274 (SWISS-PROT P45452); made in house
# Experiment: MMP-13 catalytic domain FRET enzyme assay
# Format: biochemical
# Details: recombinant human MMP-13 catalytic domain
# Experimental: A recombinant human MMP13 catalytic domain (CD) construct encompassing residues 20-274 (SWISS-PROT P45452) was generated by synthetic gene methods and bacterial expression. MMP-13 activity assays were performed using the recombinant human MMP-13 CD at a 0.4 nM concentration and the fluorogenic substrate (QXL-520)-K-P-L-A˜Nva-Dap(5-FAM)-A-R-NH2 (Anaspec cat #60554-01, San Jose, Calif.) at a 0.25 μM concentration in assay buffer containing […], pH 7.5, 10 mM CaCl2, 150 mM NaCl, 0.05% Brij 35. The assay is based on the cleavage of this substrate by MMP-13, resulting in decrease of FRET between the donor-acceptor pair and subsequent fluorescence enhancement. The assays were carried out in 384-well plates (Greiner cat #781076, Germany) for 60 min at RT. After the incubation period, the reaction was quenched by the addition of 5 μL of 500 mM EDTA (100 mM final concentration) (Rankem, Cat #E0120, India) mixed well and the rate of substrate hydrolysis was determined by monitoring change in fluorescence at excitation and emission wavelengths of 485 nm and 535 nm respectively. Fluorescence was measured on a Victor V5 plate reader (Perkin Elmer, Turku, Finland). The test compounds used for assessing the potency of inhibition of MMP-13 activity were dissolved in DMSO (final DMSO concentration in the assay was 5%). Selected compounds were also screened against full length MMP13 (R&D Systems (Cat. No. 511-MM-010), Minneapolis, Minn.) at 2 nM concentration using the same fluorogenic substrate mentioned above. The enzyme was activated using 1 m Mp-aminophenylmercuric acetate—APMA (Cat #A-9563, Sigma, Germany).
# Data analysis: The percent inhibition of the enzyme activity in presence of test compounds were calculated using the equation, percent (%) Inhibition=100−[(Fi/Fc)*100] where Fc is the fluorescence corresponding to initial enzyme activity and Fi is the fluorescence corresponding to the enzyme activity in presence of inhibitor. The IC50 values were calculated by fitting the dose-response data to a sigmoidal curve fitting equation using Graph Pad prism software (Version 5, La Jolla, Calif.).
# MMP13 Catalytic Domain (CD) Potency of the Described Examples Determined Using Time Resolved Fluorescence Resonance Energy Transfer (FRET) Enzyme Assays: […]
row,IC50 [nM],Structure (SMILES)
1,> 1000,COc1cc([C@@H](C)NC(=O)c2cc(C3=NOC(c4ccccc4)C3)nc(C)n2)ccc1F (some centres unmarked)
2,< 10,COc1cccc(CNC(=O)c2cc(C3=NOC(C4CCN(S(C)(=O)=O)CC4)C3)nc(C)n2)c1 (centres unmarked)
3,100 to 1000,COc1cc(CNC(=O)c2cc(C3=NOC(c4cc(C(N)=O)nn4C)C3)nc(C)n2)ccc1F (centres unmarked)
4,10 to 100,COc1cccc(CNC(=O)c2cc(C3=NOC(C4CCN(C(C)=O)CC4)C3)nc(C)n2)c1 (centres unmarked)
5,< 10,CNC(=O)[C@H]1CC[C@H](C2CC(c3cc(C(=O)NCc4ccc(F)c(OC)c4)nc(C)n3)=NO2)CC1 (some centres unmarked)
6,< 10,COc1cc(CNC(=O)c2cc(C3=NOC(C4CCN(C(=O)N(C)C)CC4)C3)nc(C)n2)ccc1F (centres unmarked) [drawing 1061]
7,100 to 1000,COc1ccc(CNC(=O)c2cc(C3CC(c4ccccc4)=NO3)nc(C)n2)cc1 (centres unmarked)
8,< 10,Cc1nc(C(=O)NCc2ccc(F)c(C)c2)cc(C2=NOC(c3ccc(C#N)nn3)C2)n1 (centres unmarked)
9,10 to 100,COc1cc(CNC(=O)c2cc(C3=NOC(c4ncccn4)C3)nc(C)n2)ccc1F (centres unmarked)
10,< 10,Cc1nc(C(=O)NCc2ccc3c(c2)NC(=O)CO3)cc(C2=NOC(c3ccc(=O)n(C4CC4)c3)C2)n1 (centres unmarked)
11,10 to 100,COc1cc(CNC(=O)c2cc(C3=NOC([C@H]4CC[C@H](NC(=O)C(C)(C)O)CC4)C3)nc(C)n2)ccc1F (some centres unmarked)
12,10 to 100,COc1cc(CNC(=O)c2cc(C3=NNC(c4cccnc4)C3)nc(C)n2)ccc1F (centres unmarked)
13,< 10,COc1cc(CNC(=O)c2cc(C3=NOC([C@H]4CC[C@H](NC(C)=O)CC4)C3)nc(C)n2)ccc1F (some centres unmarked)
14,< 10,CNC(=O)[C@@H]1CO[C@@H]([C@@H]2CC(c3cc(C(=O)NCc4ccc(F)c(OC)c4)nc(C)n3)=NO2)CO1
15,10 to 100,Cc1nc(C(=O)NCc2ccc(F)c(Cl)c2)cc(C2=NO[C@H]([C@H]3CO[C@H](CO)CO3)C2)n1 [drawing 1069]
16,< 10,Cc1nc(C(=O)NCc2ccc(F)c(Cl)c2)cc(C2=NO[C@H]([C@H]3CO[C@H](CS(C)(=O)=O)CO3)C2)n1
17,> 1000,COc1cccc(CNC(=O)c2cc(C3=NO[C@@H]([C@H]4CO[C@H](CO)CO4)C3)nc(C)n2)c1
18,10 to 100,Cc1nc(C(=O)NCc2ccc(F)c(C)c2)cc(C2=NO[C@@H]([C@H]3CC[C@H](NC(=O)[C@H](C)O)CC3)C2)n1
19,< 10,COc1cc(CNC(=O)c2cc(C3=NOC(C4CCN(S(C)(=O)=O)CC4)C3)nc(C)n2)ccc1F (centres unmarked)
20,10 to 100,Cc1nc(C(=O)NCc2ccc(F)c(C)c2)cc(C2=NOC(c3ccccn3)C2)n1 (centres unmarked)
21,< 10,COc1cc(CNC(=O)c2cc(C3=NOC(c4ccc(CO)cn4)C3)nc(C)n2)ccc1F (centres unmarked)
22,< 10,COc1cc(CNC(=O)c2cc(C3=NOC(C4CCN(C(=O)NCCO)CC4)C3)nc(C)n2)ccc1F (centres unmarked) [drawing 1067]
23,< 10,Cc1nc(C(=O)NCc2ccc(F)c(C)c2)cc(C2=NOC(c3ccc(=O)n(C)c3)C2)n1 (centres unmarked) [drawing 990]

row,IC50 [nM],Structure (SMILES)
1,< 10,COc1cc(CNC(=O)c2cc(C3=NOC(c4ccc(C(C)O)cn4)C3)nc(C)n2)ccc1F (centres unmarked)
2,> 1000,COc1cccc(CNC(=O)c2cc(C3=NO[C@@H]([C@@H]4CO[C@@H](CO)CO4)C3)nc(C)n2)c1
3,10 to 100,Cc1nc(C(=O)NCc2ccc(F)c(F)c2)cc(C2=NOC(c3ccc(=O)n(C)c3)C2)n1 (centres unmarked)
4,10 to 100,COc1cc(CNC(=O)c2cc(C3=NOC(CC4CCN(C(C)=O)CC4)C3)nc(C)n2)ccc1F (centres unmarked)
5,> 1000,COc1cc([C@H](C)NC(=O)c2cc(C3=NOC(c4ccccc4)C3)nc(C)n2)ccc1F (some centres unmarked)
6,10 to 100,COc1cc(CNC(=O)c2cc(C3=NOC(CC4CCN(C(=O)CO)CC4)C3)nc(C)n2)ccc1F (centres unmarked)
7,10 to 100,COc1cc(CNC(=O)c2cc(C3=NOC(c4ccc(=O)n(C)c4)C3)nc(C)n2)ccc1F (centres unmarked)
8,< 10,CC(=O)N[C@H]1CC[C@H](C2CC(c3cc(C(=O)NCc4ccc(F)c(C)c4)nc(C)n3)=NO2)CC1 (some centres unmarked)
9,< 10,COc1cc(CNC(=O)c2cc(C3=NO[C@H]([C@H]4CO[C@H](CC#N)CO4)C3)nc(C)n2)ccc1F
10,< 10,COc1cc(CNC(=O)c2cc(C3=NOC(C4CCN(S(=O)(=O)c5nccn5C)CC4)C3)nc(C)n2)ccc1F (centres unmarked)
11,> 1000,COc1cc(CNC(=O)c2cc(C3=NOC(c4ccc(N5CCCC5)nn4)C3)nc(C)n2)ccc1F (centres unmarked)
12,10 to 100,COc1cc(CNC(=O)c2cc(C3=NOC(c4ccn(C5CC5)c(=O)c4)C3)nc(C)n2)ccc1F (centres unmarked)
13,10 to 100,COc1cc(CNC(=O)c2cc(C3=NOC([C@H]4CC[C@H](NC(=O)NC(CO)CO)CC4)C3)nc(C)n2)ccc1F (some centres unmarked)
14,10 to 100,Cc1nc(C(=O)NCc2ccc(F)c(F)c2)cc(C2=NOC(C3CCN(C(=O)CO)CC3)C2)n1 (centres unmarked)
15,> 1000,Cc1nc(C(=O)NCc2ccc(F)c(Cl)c2)cc(C2=NO[C@H]([C@H]3CO[C@@H](CO)CO3)C2)n1 [drawing 924]
16,10 to 100,CC(=O)N1CCC(C2CC(c3cc(C(=O)NCc4ccc(F)c(F)c4)nc(C)n3)=NO2)CC1 (centres unmarked)
17,10 to 100,COc1cc(CNC(=O)c2cc(C3CC(c4ccc(OCCO)cc4)=NO3)nc(C)n2)ccc1F (centres unmarked)
18,< 10,COc1cc(CNC(=O)c2cc(C3=NOC(c4ccc(C#N)nn4)C3)nc(C)n2)ccc1F (centres unmarked)
19,< 10,CNC(=O)N[C@H]1CC[C@H](C2CC(c3cc(C(=O)NCc4ccc(F)c(OC)c4)nc(C)n3)=NO2)CC1 (some centres unmarked)
20,< 10,COc1cc(CNC(=O)c2cc(C3=NO[C@H](C4CCN(C(=O)CO)CC4)C3)nc(C)n2)ccc1F
21,100 to 1000,Cc1nc(C(=O)NCc2ccc(F)c(Cl)c2)cc(C2=NO[C@@H]([C@H]3CO[C@H](CO)CO3)C2)n1 [drawing 902]
22,> 1000,COc1ccc(CNC(=O)c2cc(C3=NOC(c4cnccn4)C3)ccn2)cc1 (centres unmarked)
23,10 to 100,CNC(=O)c1cccc(C2CC(c3cc(C(=O)NCc4ccc(F)c(OC)c4)nc(C)n3)=NO2)c1 (centres unmarked)

row,IC50 [nM],Structure (SMILES)
1,10 to 100,COc1cc(CNC(=O)c2cc(C3=NOC(c4ccccc4)C3)c(=O)n(C)n2)ccc1F (centres unmarked)
2,10 to 100,CNC(=O)NCC(=O)N1CCC(C2CC(c3cc(C(=O)NCc4ccc(F)c(OC)c4)nc(C)n3)=NO2)CC1 (centres unmarked)
3,100 to 1000,Cc1nc(C(=O)NCc2ccnc3ccccc23)cc(C2=NO[C@H]([C@H]3CO[C@H](CO)CO3)C2)n1
4,10 to 100,COc1cc(CNC(=O)c2cc(C3=NOC(C4CCN(C(=O)C5CCC5)CC4)C3)nc(C)n2)ccc1F (centres unmarked)
5,< 10,CNC(=O)Cn1cc(C2CC(c3cc(C(=O)NCc4ccc(F)c(OC)c4)nc(C)n3)=NO2)cc(Cl)c1=O (centres unmarked)
6,10 to 100,COc1cc(CNC(=O)c2cc(C3=NOC(c4ccc(=O)n(C)n4)C3)nc(C)n2)ccc1F (centres unmarked)
7,< 10,COc1cc(CNC(=O)c2cc(C3=NOC(C4CCN(C(=O)NCCO)CC4)C3)nc(C)n2)ccc1F (centres unmarked) [drawing 888]
8,> 1000,Cc1cccc(CNC(=O)c2cc(C3=NO[C@@H]([C@H]4CO[C@H](CO)CO4)C3)nc(C)n2)c1
9,< 10,COc1cc(CNC(=O)c2cc(C3=NOC(C4CCC(O)CC4)C3)nc(C)n2)ccc1F (centres unmarked)
10,10 to 100,COc1cc(CNC(=O)c2cc(C3=NOC(C4CCN(C(=O)Nc5nccs5)CC4)C3)nc(C)n2)ccc1F (centres unmarked)
11,10 to 100,COc1cccc(CNC(=O)c2cc(C3=NO[C@H]([C@H]4CO[C@H](CO)CO4)C3)nc(C)n2)c1
12,100 to 1000,CC(=O)N[C@H]1CC[C@H](C2CC(c3cc(C(=O)NCc4ccnc5ccccc45)nc(C)n3)=NO2)CC1 (some centres unmarked)
13,< 10,COc1cc(CNC(=O)c2cc(C3=NOC([C@H]4CC[C@H](NC(=O)NCCO)CC4)C3)nc(C)n2)ccc1F (some centres unmarked)
14,10 to 100,COc1cc(CNC(=O)c2cc(C3=NOC(c4ccn(C)c(=O)c4)C3)nc(C)n2)ccc1F (centres unmarked)
15,> 1000,COc1cc(CNC(=O)c2cc(C3=NOC(C(N)=O)C3)nc(C)n2)ccc1F (centres unmarked)
16,< 10,COc1cc(CNC(=O)c2cc(C3=NOC(C4CCN(S(=O)(=O)c5cn(C)c(C)n5)CC4)C3)nc(C)n2)ccc1F (centres unmarked)
17,100 to 1000,Cc1nc(C(=O)NCc2ccc(=O)n(C)c2)cc(C2=NO[C@@H]([C@H]3CO[C@H](CO)CO3)C2)n1
18,10 to 100,COc1cc(CNC(=O)c2cc(C3=NOC(c4cnc5[nH]ncc5c4)C3)nc(C)n2)ccc1F (centres unmarked)
19,10 to 100,CC(=O)N[C@H]1CC[C@H](C2CC(c3cc(C(=O)NCc4ccncc4)nc(C)n3)=NO2)CC1 (some centres unmarked)
20,< 10,Cc1nc(C(=O)NCc2ccc(F)c(C)c2)cc(C2=NO[C@H]([C@H]3CC[C@H](NC(=O)[C@H](C)O)CC3)C2)n1
21,< 10,COc1cc(CNC(=O)c2cc(C3=NO[C@H](c4ccn(C)c(=O)c4)C3)nc(C)n2)ccc1F
22,10 to 100,COc1ccc(CNC(=O)c2cc(C3=NO[C@H]([C@H]4CO[C@H](CO)CO4)C3)nc(C)n2)cc1
